Reference: patent publication US20140297199A1, “DRUG SCREENING METHOD AND USES THEREOF” (COLD SPRING HARBOR LABORATORY, priority 2011, published 2014)
“Also recorded” adds a separate entry of the source.

Columns and labels:
[1] = system: c-fos-GFP expression in the whole mouse brain; test: c-fos-GFP pharmacomap by STP tomography, haloperidol vs saline (Example 5); type: in vivo; conditions: 3 hours
Text: This example analyzes the effects of antipsychotic drugs on neural circuit activity in the whole mouse brain. The method comprises the following steps: (1) an automated whole-brain microscopy, STP tomography, was used to image brains of c-fos-GFP mice, which express GFP as a marker for native c-fos; (2) the distribution of the activated c-fos-GFP-positive neurons was computationally detected by convolutional neural networks; (3) the processed datasets were warped and registered in a 3D reference brain and voxelized for statistical comparisons.
Transgenic c-fos-GFP mice (Reijmers et al., Science 317:1230-1233 (2007)), expressing GFP as a surrogate marker for native c-fos, was injected with intraperitoneally with haloperidol (1 mg/kg) or saline (control). The mice were returned to their home cage and left undisturbed for 3 hours, a time period needed for the induction and fluorophore maturation of c-fos-GFP. Next, the mice were deeply anesthetized and euthanized by intra-cardiac perfusion with saline and paraformaldehyde for brain fixation. The mice were decapitated and the brain was extracted, postfixed and embedded in agar for STP tomography. Three PMTs (C1-C3) can be used for multi-color imaging. […]

[2] = system: c-fos-GFP expression in the mouse brain; test: Haloperidol dose-response c-fos-GFP pharmacomaps (Example 10); type: in vivo
Text: For example, before injection, male mice (8 weeks old) are single-housed for five days in order to limit the variability of the baseline c-fos-GFP expression.
For example, the datasets are represented as the number of centroids (c-fos-GFP cells) lying within an evenly spaced grid of 450×650×300 elements (voxels), each of size 20×20×50 microns.
Drugs have different effects and side effects at different dosages.

[3] = system: c-fos-GFP expression in the transgenic c-fos-GFP mouse brain; test: c-fos-GFP induction in transgenic c-fos-GFP mouse brain, whole-mount two-photon microscopy (Example 3); type: in vivo; conditions: three hours, vs saline, one animal per treatment
Text: High-throughput whole-brain imaging of an immediate early gene (IEG) induction was used in transgenic “indicator” mice that express GFP from specific IEG promoters, such as c-fos and Arc promoters in c-fos-GFP and Arc-GFP transgenic mice ((Barth et al., J Neurosci 24, 6466-6475 (2004); Grinevich et al., Journal of Neuroscience Methods 184, 25-36 (2009)). In these mice, GFP represents a readily detectable surrogate for the expression of the native gene.
Whole-mount two-photon microscopy was used for automated mouse brain imaging. The instrument works as follows: First, a fixed mouse brain embedded in an agar block is placed in a water bath on top of a computer controlled x-y-z stage. The stage moves the brain under the objective, so that the top is imaged as a mosaic of individual fields of view (“tiles”). […]
To validate the entire pipeline of data processing, the trained neural networks were applied to extract c-fos-GFP signal in brains of two mice, one injected with saline and the other with haloperidol at 1 mg/kg (FIG. 27). Three hours later, the mice were euthanized, their brains imaged by whole-mount two-photon microscopy, and c-fos-GFP-positive cells were computationally detected and visualized as a three-dimensional representation of intensity centroids (FIG. 17).

[4] = system: c-fos-GFP expression in the mouse brain; test: c-fos-GFP pharmacomaps of three antipsychotics at a moderate dosage (Example 9); conditions: 5 mouse brains per drug
[5] = haloperidol 0.25, risperidone 1.0, aripiprazole 1.0 mg/kg, vs saline-injected control

O=C(CCCN1CCC(O)(c2ccc(Cl)cc2)CC1)c1ccc(F)cc1 [haloperidol]
previously identified brain regions detected as statistically different vs saline ([1]; 1 mg/kg i.p., n=7 vs saline n=7, negative binomial regressions, FDR 0.01): Medial prefrontal Cx, Cingulate Cx, Piriform Cx, Major Islands of Calleja, Nc Accumbens (whole, shell, core), Lateral septum, Striatum (whole), Medial preoptic area, Paraventricular nucleus, Bed nucleus of stria terminalis, Medial thalamus | number of c-fos-GFP cells in the brain (c-fos-GFP pharmacomap) ([1]; 1 mg/kg intraperitoneally, saline brain 176,771): 545,838 c-fos-GFP cells | brain regions activated (pharmacomap A) ([2]; 0.05 mg/kg (low)): activated dorsomedial hypothalamus (HYP), ACB, and CP | brain regions activated (pharmacomap B) ([2]; 0.25 mg/kg (medium)): activated the same structures as shown in pharmacomap A, plus OT, LS and PL | brain regions activated (pharmacomap C) ([2]; 1.0 mg/kg (high)): more widespread activation, including, in addition, prelimbic (PL), infralimbic (IL), and lateral entorhinal (ENT) areas, BST, central amygdala (CEA) and PVT | numbers of activated areas across dosages ([2]; 0.05, 0.25 and 1.0 mg/kg): increasing numbers of activated areas observed with increasing dosage | strength of c-Fos induction within commonly activated regions (caudate putamen and nucleus accumbens) ([2]; 0.05, 0.25 and 1.0 mg/kg, data not shown): significantly increased with increasing dosage | c-fos-GFP-positive cells per coronal section, caudal sections ([3]; 1 mg/kg, preliminary quantitation): increased numbers of c-fos-GFP-positive cells in many caudal coronal sections; also recorded: broad distribution of haloperidol-evoked c-fos-GFP induction in the caudal sections | brain regions with c-fos-GFP induction ([3]; i.p. 1 mg/kg): expected induction of c-fos-GFP in the striatum and lateral septum; also recorded: expected strong induction of c-fos-GFP in the caudate putamen; also recorded: Strong labeling is induced in striatum (A) and lateral septum (B) | brain regions activated (pharmacomap) ([4]; haloperidol 0.25 mg/kg, risperidone 1.0 mg/kg, aripiprazole 1.0 mg/kg, vs saline): activated a major portion of the caudate putamen (CP) and nucleus accumbens (ACB), as well as the olfactory tubercle (OT), prelimbic cortex (PL), lateral septum (LS) and dorsomedial hypothalamus (HYP) | c-fos-GFP activation, Anterior cingulate cortex (ACAd) [4, 5]: up | c-fos-GFP activation, Anterior cingulate cortex (ACAv) [4, 5]: 0 | c-fos-GFP activation, Basal, Central, Cortic. Amydgala (AMG) [4, 5]: 0 | c-fos-GFP activation, Bed nucleus of Stria Terminalis (BST) [4, 5]: 0 | c-fos-GFP activation, Caudate-putamen (CP, dorso-medial) [4, 5]: up | c-fos-GFP activation, Caudate-putamen (CP, ventro-medial) [4, 5]: up | c-fos-GFP activation, Caudoputamen (CP, dorsolateral) [4, 5]: up | c-fos-GFP activation, Caudoputamen (CP, ventrolateral) [4, 5]: up | c-fos-GFP activation, Central medial thalamic nucleus [4, 5]: 0 | c-fos-GFP activation, Claustrum (CLA) [4, 5]: 0 | c-fos-GFP activation, Dorsomedial hypoth. (HYP) [4, 5]: up | c-fos-GFP activation, Gostatory Cx (GU) [4, 5]: 0 | c-fos-GFP activation, Hippocampus: CA1, CA2, CA3 (HF) [4, 5]: 0 | c-fos-GFP activation, Hippocampus: DG [4, 5]: 0 | c-fos-GFP activation, Hypothalamus, ventromedial nuclei [4, 5]: 0 | c-fos-GFP activation, Infralimbic cortex (IL) [4, 5]: up | c-fos-GFP activation, Insular area, agranular [4, 5]: 0 | c-fos-GFP activation, Lateral Septum (LS) [4, 5]: up | c-fos-GFP activation, Lateral Spetal Nucl, dorsal part [4, 5]: 0 | c-fos-GFP activation, Midline Thalamus (Nucl Reuniens, RE) [4, 5]: 0 | c-fos-GFP activation, Midline Thalamus (PVT) [4, 5]: 0 | c-fos-GFP activation, Motor area, primary (MOp) [4, 5]: 0 | c-fos-GFP activation, Motor area, secondary (MOs) [4, 5]: 0 | c-fos-GFP activation, Nucleus Accumbens (ACB), core [4, 5]: up | c-fos-GFP activation, Nucleus Accumbens (ACB), shell [4, 5]: up | c-fos-GFP activation, Nucleus Accumbens (ACB), whole [4, 5]: up | c-fos-GFP activation, Olfactory tubercle (OT) [4, 5]: up | c-fos-GFP activation, Orbital cortex ventral (VO) [4, 5]: 0 | c-fos-GFP activation, Orbital cx (ORB), lateral [4, 5]: 0 | c-fos-GFP activation, Orbital cx (ORB), medial [4, 5]: up | c-fos-GFP activation, Piriform cx (PIR) [4, 5]: 0 | c-fos-GFP activation, Prelimbic cx (PL) [4, 5]: up | c-fos-GFP activation, RSPd, v, d and agl [4, 5]: 0 | c-fos-GFP activation, Red nucleus (RN) [4, 5]: 0 | c-fos-GFP activation, Somatosensory cx, primary [4, 5]: 0 | c-fos-GFP activation, Striatum, ventro-lateral [4, 5]: 0 | c-fos-GFP activation, Superior Colliculus (SC) [4, 5]: 0 | c-fos-GFP activation, Temporal cortex [4, 5]: 0 | c-fos-GFP activation, Ventromedial Thalamus (caudally) [4, 5]: 0 | c-fos-GFP activation, Zona Inserta [4, 5]: 0
